Measurements as given in PubChem BioAssay (NCI).
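These data come from cells grown in 96-well plates and exposed to compound for 48 hours at five concentrations. The concentration for 50% growth inhibition is given as GI50. TGI: concentration producing complete growth inhibition.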

Assays:
Assay in all cases: NCI anticancer screen, dose series, 48 h
HOP-92 NSCLC = system: HOP-92 NSCLC
NCI/ADR-RES ovarian = system: NCI/ADR-RES ovarian
HT29 colon = system: HT29 colon
HOP-62 NSCLC = system: HOP-62 NSCLC
OVCAR-8 ovarian = system: OVCAR-8 ovarian
MOLT-4 leukemia = system: MOLT-4 leukemia
EKVX NSCLC = system: EKVX NSCLC
HL-60(TB) leukemia = system: HL-60(TB) leukemia
SNB-19 CNS = system: SNB-19 CNS
SNB-75 CNS = system: SNB-75 CNS

SMILES	GI50 (HOP-92 NSCLC) [µM]	TGI (HOP-92 NSCLC) [µM]	GI50 (NCI/ADR-RES ovarian) [µM]	TGI (NCI/ADR-RES ovarian) [µM]	GI50 (HT29 colon) [µM]	TGI (HT29 colon) [µM]	GI50 (HOP-62 NSCLC) [µM]	TGI (HOP-62 NSCLC) [µM]	GI50 (OVCAR-8 ovarian) [µM]	TGI (OVCAR-8 ovarian) [µM]	GI50 (MOLT-4 leukemia) [µM]	TGI (MOLT-4 leukemia) [µM]	GI50 (EKVX NSCLC) [µM]	TGI (EKVX NSCLC) [µM]	GI50 (HL-60(TB) leukemia) [µM]	TGI (HL-60(TB) leukemia) [µM]	GI50 (SNB-19 CNS) [µM]	TGI (SNB-19 CNS) [µM]	GI50 (SNB-75 CNS) [µM]	TGI (SNB-75 CNS) [µM]
C[C@@]12CCC[C@@](C)(C(=O)O)C1CC[C@]13C=C(CO)[C@](O)(CCC12)C3 (stereo not given in full)	> 100	> 100	> 100	> 100	> 100	> 100	> 100	> 100	> 100	> 100	> 100	> 100	> 100	> 100	> 100	> 100	> 100	> 100	> 100	> 100
COc1c(Nc2ncc(Cl)c(N[C@@H]3[C@H]4C=CC(C4)[C@@H]3C(N)=O)n2)ccc2c1CC[C@@H](N1CCOCC1)CC2	1.05	6.77	4.58	24.4	2.68	10.6	2.08	15	6.59	29.6	4.05	35.5	1.3	10.2	4.86	20.6	9.37	29.5	1.59	5.89
C[CH2][Sn]1([CH2]C)[O]C2C(O)OC(CO)C(O)C2[O]1 (stereo not given)	20	47	> 100	> 100	65	> 100	> 100	> 100	> 100	> 100	12.8	40.5	–	–	16.5	39.1	50.5	> 100	> 100	> 100
NC(=O)c1cccc(N)c1	> 100	> 100	> 100	> 100	> 100	> 100	> 100	> 100	> 100	> 100	> 100	> 100	> 100	> 100	> 100	> 100	> 100	> 100	74.6	> 100
COc1cc2c3c(n(CCCN=[N+]=[N-])c(=O)c2cc1OC)-c1ccc(N)cc1C3=O	0.163	0.86	0.316	1.41	0.133	0.929	0.118	0.666	0.436	1.9	0.0731	1.46	1.09	8.55	0.102	1.02	0.125	–	0.126	0.69
O=c1oc2c(Br)c(O)c(Br)cc2c2ccccc12	–	74.6	–	78.1	–	> 100	–	> 100	–	> 100	–	67.1	–	67.4	–	52.3	–	93.4	–	78.9
Cn1c(=O)c(Sc2ccccc2F)cc2cnc(NC3CCOCC3)nc21	> 25	> 25	> 25	> 25	> 25	> 25	> 25	> 25	> 25	> 25	> 25	> 25	–	–	> 25	> 25	> 25	> 25	> 25	> 25
